Publication PMC5041077, “Metabolic profile and safety of piperlongumine” (Scientific Reports, 2016)
One block for each molecule: values may come before it.

What was measured:
CYP2C9 = CYP2C9 (Homo sapiens, UniProt P11712); test: in vitro
human liver microsomes [1] = test: Time course of metabolite formation; format: in vitro ADME; details: PPL at S50, 2 mg/mL HLM
Method: The formation of metabolites was investigated through the application of three distinct mass spectrometry instruments. The incubation time was set at 50 min and 2 mg/mL of microsomal protein was employed in these experiments. The increase in the incubation time and microsomal protein aimed to produce a higher amount of metabolites. The concentration of PPL was 283.6 μM. After metabolism reaction, in order to favor a higher recovery of metabolites from microsomal medium liquid-liquid extraction was performed using 1 mL of ethyl acetate as the extractor solvent. The samples (n = 10) were shaken for 10 min at 1500 rpm using an orbital agitator and centrifuged for 5 min at 2860 × g. After that, 750 μL of supernatant was collected, and each one was pooled from ten single reactions. Next, the samples were evaporated to dryness by using a gentle stream of compressed air. To facilitate the identification of compounds that have hydroxyl groups, after sample preparation and before GC-MS analysis, silylation reactions were performed in the extracted samples. The residues were reconstituted in 50 μL of pyridine and 200 μL of BSTFA solution containing 2% TMCS. Following, the samples were slightly agitated and then incubated in a water bath at 75 °C for 120 min. […]
The incubation time was evaluated in different times (5, 10, 20, 40 and 50 min) in order to investigate the formation of metabolites. […]

human liver microsomes [2] = test: P450 reaction phenotyping by selective human enzyme inhibitors; format: in vitro ADME; details: PPL at S50/2, 10 min incubation
Method: (§1) This study was performed by evaluating the PPL metabolism and the produced metabolites in the presence of these specific inhibitors. […] The incubation protocol was the same for all inhibitors, except for orphenadrine, which was pre-incubated with all incubation constituents at 37 °C for 15 min before the reaction was initiated by the addition of substrate. The concentration of PPL used in this study corresponded to its S50/2. […] In order to enhance the sensibility one sample was pooled from 4 single reactions. Sample preparations and GC-MS analysis were performed according to assay previous described. The results were expressed as % of remain activity and compared with control sample lacking the inhibitors.
(§2) Phenotyping study at 50 min. In order to evaluate the CYP isoforms involved in M4 formation, a similar study as described in the main text was performed, except by the time of incubation of 50 min (Fig. S13).

CYP3A4 = test: as above; format: in vitro ADME; details: human, human liver microsomes, probe PPL (formation of metabolite M2)
Method: as §1, §2

[3] = tested on: recombinant human CYP (rhCYP) isoforms; test: P450 reaction phenotyping by rhCYP isoforms; format: in vitro ADME; details: 50 min incubation
Method: The capacity of selected major human P450 isoforms to metabolize PPL was screened using human recombinant isoenzymes. Briefly, PPL (S50 concentration) was added into a 200 μL incubation mixture containing P450 isoform (50 pmol/mL for CYP3A4, CYP1A2, CYP2C9, 2B6, 2D6 and 2C19; 25 pmol/mL for CYP2C8 and […]; final concentrations), NADPH regeneration system solution A (1.3 mM NADP^+ and 3.3 mM glucose-6-phosphate), NADPH regeneration system solution B (0.4 U/mL glucose-6-phosphate dehydrogenase), potassium phosphate buffer pH 7.4 (100 mM), except for CYP2C9 where the phosphate buffer was substituted by tris buffer pH 7.5 (100 mM), maintaining for 50 min in shaking water bath. In order to enhance the sensibility one sample was pooled from 4 single reactions. PPL metabolites were analyzed by a GC-MS as described previously. The MS peak areas of PPL metabolites were recorded to determine the contributions of the P450 enzymes.
as §2

epoxide hydrolase = test: Epoxide hydrolase involvement on M2 catalysis (valproic acid); format: in vitro ADME, human; details: valproic acid 550 μM, PPL 63.8 µM, 50 min, 2 mg/mL HLM, with NADPH
Method: Epoxide hydrolase involvement on M2 catalysis. To evaluate the epoxide hydrolase involvement on M2 catalysis (Fig. S14), PPL (63.8 µM) was incubated alone or in the presence of valproic acid (550 μM), an epoxide hydrolase inhibitor. The incubation was carried out for 50 minutes at 37°C with 2 mg/mL HLM. Sample preparations and chromatographic analysis were performed according to assay described in phenotyping study session. The results were expressed as % of remain activity and compared with control sample with the absence of the inhibitor.

CYP2C9, sequence (P11712 whole entry): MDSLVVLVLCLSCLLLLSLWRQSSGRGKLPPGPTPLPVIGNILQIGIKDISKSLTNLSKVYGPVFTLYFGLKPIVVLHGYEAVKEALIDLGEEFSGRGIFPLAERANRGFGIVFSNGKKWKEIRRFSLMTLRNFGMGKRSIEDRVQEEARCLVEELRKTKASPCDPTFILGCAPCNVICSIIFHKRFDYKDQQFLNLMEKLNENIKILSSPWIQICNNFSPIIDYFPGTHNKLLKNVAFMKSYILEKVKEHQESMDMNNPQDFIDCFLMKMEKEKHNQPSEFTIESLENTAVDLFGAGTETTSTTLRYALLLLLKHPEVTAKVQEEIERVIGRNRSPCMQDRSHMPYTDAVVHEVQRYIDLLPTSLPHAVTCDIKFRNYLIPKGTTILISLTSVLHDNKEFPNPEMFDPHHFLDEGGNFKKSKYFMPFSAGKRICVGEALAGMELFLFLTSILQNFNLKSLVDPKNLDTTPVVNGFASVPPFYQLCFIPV

Km (CYP2C9): 47 µM
SMILES: O=C(O)Cc1ccccc1Nc1c(Cl)cccc1Cl [Diclofenac, diclofenac]

incubation time of maximum production of the metabolite (human liver microsomes [1]): 20 min
SMILES: COc1cc(/C=C/C(=O)N2CCC3OC3C2=O)cc(OC)c1OC (centres unmarked) [M2]

inhibition of the formation of metabolite M1 (human liver microsomes [2]; α-naphthoflavone (CYP1A2 inhibitor) 1 μM): strong inhibition
SMILES: O=c1cc(-c2ccccc2)oc2c1ccc1ccccc12 [α-naphthoflavone]

inhibitory effect on the formation of metabolite M3 (human liver microsomes [2]; ketoconazole 2 μM): significant inhibitory effect | inhibition at 10 min, 2 µM (CYP3A4): 83%
SMILES: CC(=O)N1CCN(c2ccc(OCC3COC(Cn4ccnc4)(c4ccc(Cl)cc4Cl)O3)cc2)CC1 (centres unmarked) [ketoconazole]

incubation time after which the metabolite starts to be produced (lag-time) (human liver microsomes [1]): > 40 min
SMILES: COc1cc(/C=C/C(=O)N2CCC(O)C(O)C2=O)cc(OC)c1OC (centres unmarked) [M4]
recombinant isoforms that contributed to M4 formation [3]: CYP2C19, CYP2D6, CYP2E1, CYP2B6 and CYP2C8

amount of metabolite M4 produced in presence of valproic acid (epoxide hydrolase): same amount produced
SMILES: CCCC(CCC)C(=O)O [valproic acid]
